Reference: patent US20150141438A1, “METHODS FOR DELAYING OR PREVENTING THE ONSET OF TYPE 1 DIABETES” (Pharmacyclics, Inc., priority 2013, published 2015)

Tests used:
[1] = Example 3: prediabetic individual administered ibrutinib and cyclosporine A; format: in vivo; details: individual with impaired fasting glycemia and impaired glucose tolerance; ibrutinib administered with cyclosporine A
Experimental: An individual presents with impaired fasting glycemia and impaired glucose tolerance. The individual is determined to be prediabetic.

anti-insulin B cells = assay: BTK inhibitor treatment of 125Tg/NOD mice (Ibrutinib chow); B cell subsets assessed by flow cytometry in freshly isolated organs; format: in vivo, mouse
Experimental: After 5-10 weeks, spleen, draining pancreatic lymph nodes, and pancreas were harvested and flow cytometry was used to analyze B cell subsets. […] Mice were 12-13 weeks old at time of analysis.
B cell subsets were assessed by flow cytometry in freshly isolated organs as outlined below.
BM was eluted from long bones, and spleens and pancreatic draining lymph nodes (PLN) were macerated with HBSS (Invitrogen) plus 10% FBS (HyClone). Red blood cells were lysed using Tris-NH4Cl. Freshly isolated pancreata were digested with 3 mL of 1 mg/mL collagenase P diluted in HBSS for 30 min at 37° C., then tissue was disrupted using an 18-gauge needle. Ice cold HBSS plus 10% FBS was immediately added to inhibit collagenase activity. Cells were directly analyzed by flow cytometry. Flow cytometry Ab reagents were reactive with B220 (6B2), IgM^a (DS-1), CD19 (1D3), CD21 (7G6), CD23 (B3B4), CD93 (AA4.1), or IgM chain-specific) (Life Technologies). Biotin N-hydroxysuccinimide ester (Sigma) was used to biotinylate human insulin (Sigma) at pH 8.0 in bicine buffer. Streptavidin reagents (BD Biosciences) were used to detect biotinylated reagents. 7AAD (BD Biosciences) was used to identify dead cells. Sample acquisition was performed using an LSR II flow cytometer (BD Biosciences) and FlowJo software (Treestar) was used for analysis.
BTK is a complex protein with adapter as well as kinase functions that have independent effects on various aspects of B cell development and function. […] Flow cytometry analysis of freshly isolated splenocytes was used to identify B cell subsets as in FIG. 3.

[2] = spleen, Ibrutinib vs. placebo chow, 125Tg/NOD mice

## C=CC(=O)N1CCC[C@@H](n2nc(-c3ccc(Oc4ccccc4)cc3)c3c(N)ncnc32)C1 [Ibrutinib, (R)-1-(3-(4-amino-3-(4-phenoxyphenyl)-1H-pyrazolo[3,4-d]pyrimidin-1-yl)piperidin-1-yl)prop-2-en-1-one]
[1]
  development of Type 1 Diabetes: does not develop Type 1 Diabetes
anti-insulin B cells; 125Tg/NOD mice treated with Ibrutinib
  trafficking of anti-insulin B lymphocytes to pancreatic draining lymph nodes or pancreas: does not block their trafficking to pancreatic draining lymph nodes or pancreas
anti-insulin B cells; 125Tg/NOD mice, Ibrutinib chow 5-10 weeks, 38 mg/kg per day, placebo 28.6±8.3, no difference
  non-B lymphocyte numbers in spleen: 25.1±8.5 ×10^6
anti-insulin B cells; 125Tg/NOD mice, Ibrutinib chow 5-10 weeks, average 38 mg/kg per day, placebo 22.2±5.8, p<0.001
  number of B lymphocytes (B220+ IgM+ live lymphocytes) in spleen: 10.1±2.8 ×10^6
anti-insulin B cells; 125Tg/NOD mice, Ibrutinib chow 5-10 weeks, placebo 17±3, p=0.51, no difference
  T2 B cell subset numbers in the spleen: 49±76 ×10^4
anti-insulin B cells; 125Tg/NOD mice, Ibrutinib chow 5-10 weeks, placebo 43±6, p=0.0015
  pre-marginal zone B cell numbers in the spleen: 17±5 ×10^4
anti-insulin B cells; 125Tg/NOD mice, Ibrutinib chow 5-10 weeks, placebo 345±38, p<0.001
  follicular B cell numbers in the spleen: 41±37 ×10^4
anti-insulin B cells; 125Tg/NOD mice, Ibrutinib chow 5-10 weeks, placebo 1283±217, p=0.002
  marginal zone B cell numbers in the spleen: 443±164 ×10^4
anti-insulin B cells; 125Tg/NOD mice, Ibrutinib chow, placebo 5.2±7.7, p=0.36, no significant difference
  number of B cells in the pancreas: 0.66±0.80 ×10^4
anti-insulin B cells; 125Tg/NOD mice, Ibrutinib chow, placebo 21±8, p=0.49, no significant difference
  number of B cells in the pancreatic draining lymph nodes: 26±9 ×10^4
anti-insulin B cells; [2]
  reduction in follicular B cell numbers: 88%
  reduction in marginal zone B cell numbers: 65%
  reduction in pre-marginal zone B cell numbers: 60%
